In patent US7491714B2 (dated 2009):

Row | Structure (SMILES) | melting point
1 | COc1ccc2nccc([C@@H]3CN(CCCNS(=O)(=O)c4ccc5c(c4)NC(=O)CCS5)C(=O)O3)c2c1 | 128 to 130 °C
2 | COc1ccc2nccc([C@@H]3CN(CCCNS(=O)(=O)c4ccc5c(c4)NC(=O)CO5)C(=O)O3)c2c1 | 150 to 155 °C
